Test: xn = mol fraction of the nth substance listed

CCCCCCCCO + COC(=O)OC
viscosity [mPa·s], 100 kPa
Conditions | 293.15 K | 298.15 K | 303.15 K | 308.15 K | 313.15 K | 318.15 K | 323.15 K
x2 = 0.1 | – | – | 4.529 | 3.905 | 3.388 | 2.951 | 2.59
x2 = 0.1003 | 6.22 | 5.35 | 4.58 | 3.94 | 3.41 | 2.97 | 2.61
x2 = 0.1999 | – | – | 3.34 | 2.917 | 2.56 | 2.263 | –
x2 = 0.2001 | 4.4 | 3.86 | 3.45 | 2.93 | 2.61 | 2.24 | 1.99
x2 = 0.2997 | 3.28 | 2.87 | 2.52 | 2.22 | 1.97 | 1.76 | 1.58
x2 = 0.3 | – | – | 2.516 | 2.22 | 1.971 | 1.763 | –
x2 = 0.3999 | – | – | 1.931 | 1.73 | 1.547 | 1.395 | –
x2 = 0.4005 | 2.44 | 2.14 | 1.9 | 1.69 | 1.5 | 1.35 | 1.22
x2 = 0.5 | – | – | 1.505 | 1.358 | 1.229 | 1.119 | –
x2 = 0.5004 | 1.83 | 1.63 | 1.46 | 1.31 | 1.18 | 1.08 | 0.98
x2 = 0.5996 | 1.39 | 1.25 | 1.13 | 1.03 | 0.94 | 0.86 | 0.8
x2 = 0.6 | – | – | 1.183 | 1.079 | 0.984 | 0.903 | –
x2 = 0.7 | – | – | 0.959 | 0.88 | 0.814 | 0.754 | –
x2 = 0.7001 | 1.08 | 0.98 | 0.9 | 0.83 | 0.77 | 0.71 | 0.66
x2 = 0.7999 | – | – | 0.765 | 0.711 | 0.662 | 0.617 | –
x2 = 0.8001 | 0.85 | 0.78 | 0.72 | 0.67 | 0.62 | 0.58 | 0.54
x2 = 0.9 | – | – | 0.633 | 0.591 | 0.554 | 0.523 | –
x2 = 0.9005 | 0.66 | 0.61 | 0.58 | 0.54 | 0.51 | 0.48 | 0.45

CC#N + CCCO
viscosity [mPa·s]
Conditions | 293.15 K | 298.15 K | 303.15 K | 308.15 K | 313.15 K | 323.15 K
101 kPa, x1 = 0.0674 | – | 1.557 | 1.267 | 1.035 | – | –
101 kPa, x1 = 0.1534 | – | 1.243 | 1.027 | 0.845 | – | –
101 kPa, x1 = 0.2933 | – | 0.903 | 0.761 | 0.645 | – | –
101 kPa, x1 = 0.3889 | – | 0.738 | 0.631 | 0.54 | – | –
101 kPa, x1 = 0.4881 | – | 0.622 | 0.539 | 0.469 | – | –
101 kPa, x1 = 0.5995 | – | 0.519 | 0.459 | 0.407 | – | –
101 kPa, x1 = 0.703 | – | 0.438 | 0.39 | 0.351 | – | –
101 kPa, x1 = 0.7951 | – | 0.393 | 0.354 | 0.321 | – | –
101 kPa, x1 = 0.909 | – | 0.361 | 0.329 | 0.303 | – | –
101.3 kPa, x1 = 0.1388 | – | 1.295 | 1.166 | 1.053 | 0.983 | –
101.3 kPa, x1 = 0.2787 | – | 0.922 | 0.842 | 0.769 | 0.706 | –
101.3 kPa, x1 = 0.3856 | – | 0.747 | 0.695 | 0.634 | – | –
101.3 kPa, x1 = 0.4939 | – | 0.615 | 0.574 | 0.53 | – | –
101.3 kPa, x1 = 0.5945 | – | 0.522 | 0.498 | 0.465 | – | –
101.3 kPa, x1 = 0.6887 | – | 0.463 | 0.436 | 0.413 | – | –
101.3 kPa, x1 = 0.7735 | – | 0.421 | 0.399 | 0.38 | – | –
101.3 kPa, x1 = 0.8539 | – | 0.391 | 0.374 | 0.355 | – | –
101.3 kPa, x1 = 0.9294 | – | 0.365 | 0.352 | 0.334 | – | –
101.32 kPa, x1 = 0.0214 | 2.052 | – | 1.623 | – | 1.298 | 1.052
101.32 kPa, x1 = 0.0926 | 1.636 | – | 1.329 | – | 1.089 | 0.8994
101.32 kPa, x1 = 0.131 | 1.467 | – | 1.195 | – | 0.9876 | 0.8269
101.32 kPa, x1 = 0.2287 | 1.114 | – | 0.9375 | – | 0.7852 | 0.665
101.32 kPa, x1 = 0.3661 | 0.8314 | – | 0.7 | – | 0.5983 | 0.5179
101.32 kPa, x1 = 0.4647 | 0.6986 | – | 0.5975 | – | 0.5164 | 0.451
101.32 kPa, x1 = 0.5532 | 0.5951 | – | 0.5163 | – | 0.4519 | 0.3984
101.32 kPa, x1 = 0.6088 | 0.5441 | – | 0.4725 | – | 0.4163 | 0.3701
101.32 kPa, x1 = 0.7151 | 0.4665 | – | 0.4106 | – | 0.3663 | 0.3284
101.32 kPa, x1 = 0.8071 | 0.4122 | – | 0.3683 | – | 0.3317 | 0.3003
101.32 kPa, x1 = 0.8778 | 0.3835 | – | 0.345 | – | 0.3126 | 0.2849
